Reference: US9453226B2, “Protection of cells from Alu-RNA-induced degeneration and inhibitors for protecting cells” (UNIVERSITY OF KENTUCKY RESEARCH FOUNDATION, priority 2011, dated 2016)

Legend:
MyD88 = MyD88 knockdown in mouse RPE cells; type: cell-based; conditions: compared to control siRNA
Excerpt: Total RNA was extracted from tissues or cells using Trizol reagent (Invitrogen) according to manufacturer's recommendations, DNase treated and reverse transcribed (QuantiTect, Qiagen). The RT products (cDNA) were amplified by real-time quantitative PCR (Applied Biosystems 7900 HT Fast Real-Time PCR system) with Power SYBR green Master Mix. […] For negative controls, no RT products were used as templates in the QPCR and verified by the absence of gel-detected bands. Relative expressions of target genes were determined by the 2^−ΔΔCt method.
Tissues or cells were homogenized in lysis buffer (10 mM Tris base, pH 7.4, 150 mM NaCl, 1 mM EDTA, 1 mM EGTA, 1% Triton X-100, 0.5% NP-40, protease and phosphatase inhibitor cocktail (Roche)). Protein concentrations were determined using a Bradford assay kit (Bio-Rad) with bovine serum albumin as a standard. […] Protein loading was assessed by immunoblotting using an anti-Vinculin antibody (1:1,000; Sigma-Aldrich). […]

RPE [1] = experiment: pAlu-induced RPE degeneration in wild-type mice, inhibitors given intravitreously; type: in vivo; conditions: WT mice, subretinal pAlu, inhibitor intravitreous, fundus photographs and ZO-1 flat mounts
Protocol: (§1) Subretinal injection and imaging. Subretinal injections (1 μL) were performed using a Pico-Injector (PLI-100, Harvard Apparatus). Plasmids were transfected in vivo using 10% Neuroporter (Genlantis). Fundus imaging was performed on a TRC-50 IX camera (Topcon) linked to a digital imaging system (Sony). RPE flat mounts were immunolabeled using antibodies against zonula occludens-1 (Invitrogen).
Retinal photographs of dilated mouse eyes were taken with a TRC-50 IX camera (Topcon) linked to a digital imaging system (Sony).
Human eyes fixed in 2-4% paraformaldehyde were prepared as eyecups, cryoprotected in 30% sucrose, embedded in optimal cutting temperature compound (Tissue-Tek OCT; Sakura Finetek), and cryosectioned into 10 μm sections. Depigmentation was achieved using 0.25% potassium permanganate and 0.1% oxalic acid. Immunohistochemical staining was performed with the rabbit antibody against NLRP3 (1:100, Sigma Aldrich) or rabbit antibody against Caspase-1 (prediluted, AbCam). Isotype IgG was substituted for the primary antibody to assess the specificity of the staining. Bound antibody was detected with biotin-conjugated secondary antibodies, followed by incubation with ABC reagent and visualized by Vector Blue (Vector Laboratories). Levamisole (Vector Laboratories) was used to block endogenous alkaline phosphatase activity. Slides were washed in PBS, counterstained with neutral red (Fisher Scientific), rinsed with deionized water, air dried, and then mounted in Vectamount (Vector Laboratories). Fluorescent labeling of human tissue was performed with the rabbit antibody against PYCARD (1:50, Clone N-15, Santa Cruz Biotechnology) Immunolabeling was visualized by fluorescently conjugated anti-rabbit secondary antibody (Invitrogen). Tissue autofluorescence was quenched by incubating the sections in 0.3% Sudan black (Fisher Scientific). Sections were mounted in Vectashield with DAPI (Vector Laboratories). Mouse RPE/choroid flat mounts were fixed with 4% paraformaldehyde or 100% methanol, stained with rabbit antibodies against human zonula occludens-1 (1:100, Invitrogen) and visualized with Alexa594 (Invitrogen). All images were obtained using the Leica SP-5 or Zeiss Axio Observer Z1 microscopes.
(§2) Subretinal injections (1 μL) in mice were performed using a Pico-Injector (PLI-100, Harvard Apparatus). In vivo transfection of plasmids coding for two different Alu sequences (pAlu) or empty control vector (pNull) (Bennett et al., 2008; Kaneko et al., 2011; Shaikh et al., 1997) was achieved using 10% Neuroporter (Genlantis). AAV1-BEST1-Cre (Alexander and Hauswirth, 2008) or AAV1-BEST1-GFP were injected at 1.0×10^11 pfu/mL and in vitro transcribed Alu RNA was injected at 0.3 mg/mL.
siRNAs formulated in siRNA buffer (20 mM KCL, 0.2 mM MgCl2 in HEPES buffer at pH 7.5; Dharmacon) or phosphate buffered saline (PBS; Sigma-Aldrich); the TLR4 antagonist Ultra Pure Rhodobacter sphaeroides LPS (LPS-RS, InvivoGen), a peptide inhibitor of MyD88 homodimerization IMG-2005 (IMGENEX), control inhibitor (IMGENEX), recombinant IL-18 (Medical & Biological Laboratories), neutralizing rat antibodies against mouse IL-1β (IMGENEX), neutralizing rat antibodies against mouse IL-18 (Medical & Biological Laboratories), isotype control IgGs (R&D Systems or eBioscience as appropriate), Caspase-1 inhibitor Z-WEHD-FMK (R&D Systems), Caspase control inhibitor Z-FA-FMK (R&D Systems), DPI (Enzo Life Sciences), Mito-TEMPO (Enzo Life Sciences), MitoQ and dTPP (both adsorbed to cyclodextrin and provided by M.P. Murphy, MRC Mitochondrial Biology Unit), and gp91ds-tat and scrambled gp91 ds-tat (both Anaspec), were dissolved in phosphate buffered saline (PBS; Sigma-Aldrich) or dimethyl sulfoxide (DMSO; Sigma-Aldrich), and injected into the vitreous humor in a total volume of 1 μL with a 33-gauge Exmire microsyringe (Ito Corporation). […] As a control, Luc siRNA-chol (17+2 nt) was used with identical dosages. […]

phagosomal ROS = experiment: Phagosomal ROS in human RPE cells (Fc OXYBURST Green); type: cell-based
Protocol: Cellular ROS production was assessed using the ROS-specific probe 2′7′-dichlorodihydrofluorescin diacetate (H2DCFDA, BioChemica, Fluka). Mitochondrial ROS production was assessed using MitoSOX™ Red (Invitrogen). Sub-confluent human RPE cells were transfected with pNull or pAlu. After 24 h cells were loaded for 10 min at 37° C. with 10 μM H2DCFDA or MitoSOX™ Red (Invitrogen) mitochondrial superoxide indicator for live-cell imaging and washed twice with PBS. For H2DCFDA, fluorescence was recorded in 96-well plate using with a Synergy 4 reader (Biotek) using a FITC filter (excitation 485 nm, emission 538 nm). To visualize respiring mitochondria for colocalization with the mitochondrial ROS signal, after PBS wash cells were incubated with MitoTracker Deep Red™ (Invitrogen) for 30 min at 37° C. and then washed twice with PBS. The fluorescent signals were detected using Leica SP-5 or Zeiss Axio Observer Z1 microscopes. Phagosomal ROS production was assessed using the Fc-OXYBURST Green™ assay (Invitrogen). Sub-confluent human RPE cells were transfected with pNull or pAlu, or treated with PMA (0.5 μg/ml; Sigma-Aldrich). […] The total fluorescence from the cells was measured immediately after adding Fc-OXYBURST Green™ with a Synergy 4 reader (Biotek) using FITC filter (excitation 485 nm, emission 538 nm).

RPE [2] = experiment: RPE degeneration after subretinal delivery in mice (wild-type and deficient strains); type: in vivo
Protocol: as §1
All animal experiments were approved by institutional review committees and in accordance with the Association for Research in Vision and Ophthalmology Statement for the Use of Animals in Ophthalmic and Visual Research. Wild-type C57BL/6J, Cybb^−/−, Tlr3^−1−, Tlr4^−/− (C57BL/10ScNJ), Trif^−/− (Ticam1^Lps2), Ifng^−/−, Ifngr1^−/−, Il1r1^−1−, Il18r1^−1−, Myd88^f/f, and Dicer1^f/f mice were purchased from The Jackson Laboratory. Casp1^−1−, Nbp3^−/−, and Pycard^−/− mice have been previously described (Kanneganti et al., 2006). Unc93b1 mutant mice were generously provided by B. A. Beutler via K. Fitzgerald. Myd88^−/− and Tlr7^−/− mice were generously provided by S. Akira via T. Hawn and D. T. Golenbock. Mda5^−/− mice were generously provided by M. Colonna. […] Mavs^−/− mice were generously provided by Z. Chen via K. Fitzgerald. For all procedures, anesthesia was achieved by intraperitoneal injection of 100 mg/kg ketamine hydrochloride (Ft. Dodge Animal Health) and 10 mg/kg xylazine (Phoenix Scientific), and pupils were dilated with topical 1% tropicamide (Alcon Laboratories).
as §2
Bone marrow transplantation was used to create Myd88^−/− chimera mice wherein the genetic deficiency of Myd88 was confined to either circulating cells (Myd88^−/− →WT) or nonhematopoietic tissue (WT→Myd88^−/−). Briefly, bone marrows were collected from femur and tibia of congenic WT or Myd88^−/− donor mice by flushing with RPMI1640. After two washing steps, cells were resuspended in RPMI1640. 1×10^7 cells in 150 μL of RPMI1640 were injected into the tail vein of irradiated […] mice. Two chimera groups were generated: WT→Myd88^−/− (WT cells into Myd88^−/− mice) and Myd88→WT (Myd88 cells into WT mice). 2 months after bone marrow transfer, mice were injected subretinally with Alu RNA, vehicle, pAlu, or pNull, and monitored for RPE degeneration 7 days later. […]

Caspase-8 = Caspase-8 activation in the RPE of wild-type mice (fluorometric assay); type: in vivo; conditions: subretinal injection
Protocol: RPE tissues were homogenized in lysis buffer (10 mM Tris base, pH 7.4, 150 mM NaCl, 1 mM EDTA, 1 mM EGTA, 1% Triton X-100, 0.5% NP-40, protease and phosphatase inhibitor cocktail (Roche)). Protein concentrations were determined using a Bradford assay kit (Bio-Rad) with bovine serum albumin as a standard. The […] activity was measured using Caspase-8 Fluorimetric Assay (R&D) in according to the manufacturer's instructions.

**Q.** Which results are given for “5′-CAGAGCAAGGAAUGUGAdTdT-3′ [cholesterol-conjugated Myd88 siRNA]”?
**A.** target gene and protein abundance (MyD88) (MyD88): reduces; pAlu-induced RPE degeneration (RPE [1]): inhibited; pAlu-induced RPE degeneration (RPE [1]; listed as MyD88-targeting short interfering RNA): inhibited RPE degeneration

**Q.** With `CCCCCCCCCCCCCC(=O)O[C@@H]1[C@@H](C)[C@@]2(O)[C@@H](C=C(CO)C[C@]3(O)C(=O)C(C)=C[C@@H]23)[C@@H]2C(C)(C)[C@]12OC(C)=O` [PMA, phorbol myristate acetate] as the molecule, how does the “phagosomal ROS” value (phagosomal ROS) read?
**A.** induced phagosomal ROS

**Q.** “Recombinant IL-18: recombinant IL-18 (Medical & Biological Laboratories)” was tested. Which “RPE degeneration after subretinal delivery” value (RPE [2]; CD95−/− (Fas lpr) mice) did it give?
**A.** did not induce RPE degeneration

**Q.** And the “RPE degeneration after subretinal delivery” value (RPE [2]; Casp1−/− mice)?
**A.** induced RPE degeneration

**Q.** And the “RPE degeneration after subretinal delivery” value (RPE [2]; Faslg−/− (Fasl gld) mice)?
**A.** did not induce RPE degeneration

**Q.** And the “RPE degeneration after subretinal delivery” value (RPE [2]; WT mice)?
**A.** induced RPE degeneration

**Q.** And the “activation of Caspase-8” value (Caspase-8; listed as IL-18)?
**A.** induced activation of caspase-8

**Q.** What about the “activation of Caspase-8” value (Caspase-8; listed as recombinant IL-18) of the same molecule?
**A.** induced activation of Caspase-8
